One data set relates to HEK293 cells. The data set can be described thus: Cytotoxicity test (Cell Counting Kit-8), HEK293. In kind it is cell-based, human. Conditions: 293 (HEK293) cells, 48 hours. The procedure:
(§1) First, as test compound solutions, test compounds were prepared in 1% dimethylsulfoxide-containing MEMs so that a final concentration was 1000, 100, 10, 1, 0.1, 0.01, or 0.001 μM.
(§2) Cell fluids in which MDCK cells, A549 cells, and HEK293 cells were prepared at concentrations of 6.25×10^5 cells/mL, 2.5×10^6 cells/mL, and 1.25×10^5 cells/mL in minimum essential mediums (MEMs) were added to a 96-well plate at 0.1 ml/well and the cells were seeded. The cells in the 96-well plate were cultured in a carbon dioxide incubator at 37° C. and washed with MEM the day after the seeding date. In the washed cells in the 96-well plate, 0.1 mL of each test compound solution was added to three wells for each concentration and the cells in the 96-well plate were then cultured in a carbon dioxide incubator at 37° C. for 48 hours. After the culture, a Cell Counting Kit-8 solution (commercially available from Dojindo Molecular Technologies, Inc.) was added to each well at 10 μL and culture was additionally performed at 37° C. for several hours. After the culture, an absorbance at 450 nm of a solution of each well in the 96-well plate was measured using a microplate reader. An absorbance value when a solvent (1% dimethylsulfoxide-containing MEM) was added in place of the test compound was set to 100% at which the whole cells survived. A final concentration value of the test compound when an absorbance was 50% was calculated as a 50% cytotoxicity concentration (CC50 value).
On the technique in general: Formazan colour is commonly taken as a measure of viable cells.

A short description of data set [1]: Cytotoxicity test (Cell Counting Kit-8), HEK293. Conditions: human, 293 (HEK293) cells, read-out: CC50 (50% cytotoxicity concentration) (converted). The format is cell-based, human. The procedure:
as §1, §2

Data set [2] has as its target T1, adenine nucleotide transporter (ANT) (Homo sapiens, UniProt P05141).
T1 sequence (P05141 1-298): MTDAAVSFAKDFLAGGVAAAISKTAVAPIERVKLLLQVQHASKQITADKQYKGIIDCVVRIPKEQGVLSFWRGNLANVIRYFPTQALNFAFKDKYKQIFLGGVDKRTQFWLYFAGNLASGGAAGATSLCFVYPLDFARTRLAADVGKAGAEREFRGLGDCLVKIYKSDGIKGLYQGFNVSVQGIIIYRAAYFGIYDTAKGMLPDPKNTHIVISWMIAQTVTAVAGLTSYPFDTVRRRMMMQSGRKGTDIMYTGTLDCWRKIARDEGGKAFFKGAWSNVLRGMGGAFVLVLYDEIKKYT
As to conditions: cited from earlier work.

For a further data set, the system named is influenza virus. The format is cell-based.
In data set [3] the test system is A549 cells. The data set can be described thus: Cell viability with inhibitors (CellTiter-Glo, Example 2), A549. As to conditions: 0.2 μM.
Procedure: (§3) In addition, a cell viability (%) was calculated using a CellTiter-Glo assay system (commercially available from Promega Corporation) according to the appended instructions. The number of cells cultured in a medium containing the inhibitors with respect to the number of living cells in cells cultured in a medium containing the control (the DMSO solution) was calculated as the cell viability (%).
Data set [4] relates to HEK293 cells or A549 cells. Briefly: Cell viability with inhibitors (CellTiter-Glo, Example 2), cell line not specified. In kind it is cell-based, human. Conditions: for cell viability: 48 hours.
Procedure: Specifically, HEK293 cells or A549 cells were infected with an influenza virus with an MOI of 0.001. Cells 1 hour after the infection were washed and then cultured in a culture solution containing inhibitors, a DMSO solution (final concentration: 1 volume %) was used as a control instead of the inhibitors. […] In addition, a cell viability (%) was calculated using a CellTiter-Glo assay system (commercially available from Promega Corporation) according to the appended instructions. The number of cells cultured in a medium containing the inhibitors with respect to the number of living cells in cells cultured in a medium containing the control (the DMSO solution) was calculated as the cell viability (%).
Data set [5] is described as follows: Cytotoxicity test (Cell Counting Kit-8), A549. The format is cell-based. Conditions: human, A549 cells, read-out: CC50 (50% cytotoxicity concentration) (converted).
The nature of data set [6]: Cytotoxicity test (Cell Counting Kit-8), MDCK. The format is cell-based, canine. As to conditions: dog, MDCK cells, read-out: CC50 (50% cytotoxicity concentration) (converted). On the procedure: as §1
as §2, with “A final concentration value of the test compound when an absorbance was 50% was calculated as a 50% cytotoxicity concentration (CC50 value).” left out

Data set [7] has as its system A549 cells.
Procedure: as §3

Counter-ions that a name gives are not always drawn. Like-named read-outs stand apart in the source and are kept apart here. Where only a bound is given, the exact number is not on record here.

In the case of `CN1CCN(c2cccc(Nc3nc4c(-c5ccc(S(C)(=O)=O)cc5)cccn4n3)c2)CC1` [Compound J11], in the data set with HEK293 cells, the “CC50 (50% cytotoxicity concentration)” value was >5.5 log10, nM. As for `N#CCNC(=O)c1ccc(-c2ccnc(Nc3ccc(N4CCOCC4)cc3)n2)cc1` [Compound J8, N-(cyanomethyl)-4-(2-(4-morpholinophenylamino)pyrimidin-4-yl)benzamide], the CC50 at 48 h in [1] (HEK293 cells) is more than 316 µM. As to `Cl.Cl.Fc1cc(-c2cccc3ncc(-c4cnn(C5CCNCC5)c4)nc23)cc(F)c1CN1CCOCC1` [Compound J21, 4-[[2,6-difluoro-4-[3-(1-piperidin-4-ylpyrazol-4-yl)quinoxalin-5-yl]phenyl]methyl]morpholine; dihydrochloride], in [1], the CC50 at 48 h was 38.9 µM.

For `Fc1cc(-c2cccc3ncc(-c4cnn(C5CCNCC5)c4)nc23)cc(F)c1CN1CCOCC1` [Compound J13, 8-(3,5-difluoro-4-(morpholinomethyl)phenyl)-2-(1-(piperidin-4-yl)-1H-pyrazol-4-yl)qui noxaline], the CC50 at 48 h in [1] (HEK293 cells) is 20.9 µM.

As for `C=C1[C@@H]2CC[C@H]3[C@]4(C)C[C@H](O[C@@H]5O[C@H](CO)[C@@H](OS(=O)(=O)O)[C@H](OS(=O)(=O)O)[C@H]5OC(=O)CC(C)C)CC(C(=O)O)(C(=O)O)[C@H]4CC[C@]3(C2)[C@H]1O` [Carboxyatractyloside], the Ki (commonly a dissociation constant, usually derived from enzyme kinetics or from competition with a known ligand) in [2] is less than 0.01 µM. With `CC(C)C[C@H](NC(=O)[C@H](Cc1ccccc1)NC(=O)c1cnccn1)B(O)O` [Bortezomib], in the data set with influenza virus (0.2 μM, A549 cells, MOI 0.001, 48 hours), the “virus titer reduced by a common logarithmic value” is listed as 4 common logarithmic value. Besides, the cytotoxicity entry in the data set with A549 cells [3] was “without showing severe cytotoxicity”. Regarding `CCC[C@H](NC(=O)/C(C#N)=C/c1cccc(Br)n1)c1ccccc1` [Compound J25, (2E)-3-(6-bromo-2-pyridinyl)-2-cyano-N-[1S-phenylbutyl]-2-propenamide], the anti-influenza virus effect entry in the data set on influenza virus is recorded as “had an anti-influenza virus effect”. Moreover, the cell viability entry in [4] (50 μM) is given as “significantly reduced”. In addition, the “CC50 (50% cytotoxicity concentration)” value in the data set on HEK293 cells is 3.69 log10, nM. In the case of `CC(C)N(CCC(=O)c1ccc2ccccc2c1)Cc1ccccc1` [Compound J15, 1-propanone, 3-[(1-methylethyl)(phenylmethyl)amino]-1-(2-naphthalenyl)-, hydrochloride (1:1)], in data set [1] (HEK293 cells), the CC50 at 48 h is 47.9 µM. As to `COc1cc2ncnc(Nc3ccc(O)cc3)c2cc1OC` [Compound J20, 4-[(6,7-dimethoxy-4-quinazolinyl)amino]-phenol], in data set [1] (HEK293 cells), the CC50 at 48 h was more than 316 µM. As for `N#C/C(=C\c1ccc(O)c(O)c1)C(=O)NCc1ccccc1` [Compound J4, (E)-N-benzyl-2-cyano-3-(3,4-dihydroxyphenyl)acrylamide], in [5], the CC50 at 48 h is 2690 µM. With `CN1C/C=C/CCOc2cccc(c2)-c2ccnc(n2)Nc2cccc(c2)C1` [Compound J23, 20-oxa-5,7,14,27-tetraazatetracyclo[19.3.1.12,6.18, 12]heptacosa-1(25),2,4,6(27),8,10,12(26),16,21,23-decane,14-methyl-], the CC50 at 48 h was 7.94 µM in data set [6], 35.5 µM in data set [5] and 52.5 µM in data set [1] (HEK293 cells).

As to `O=C(Nc1c[nH]nc1-c1nc2cc(CN3CCOCC3)ccc2[nH]1)NC1CC1` [Compound J7, 1-cyclopropyl-3-(3-(5-(morpholinomethyl)-1H-benzo[d]imidazol-2-yl)-1H-pyrazol-4-yl) urea], the CC50 at 48 h in data set [5] was more than 316 µM. As to `Fc1cc(F)c2c(c1)C1C=CCC1C(c1cccnc1)N2` (centres unmarked) [Golgicide A], in the data set with influenza virus, the anti-influenza virus effect entry is “had an anti-influenza virus effect” and the “effect on virus titer” value is listed as “significantly reduced a virus titer”. In [4] (summary of Example 2), the “toxicity to host cells” value is “relatively low toxicity to host cells”.

As to `O=c1c(-c2ccc(O)cc2)coc2cc(O)cc(O)c12` [Genistein], the anti-influenza virus effect result in the data set on influenza virus is “had an anti-influenza virus effect”. Still for that read-out and setting: the value for `O=C1/C(=C/c2ccc(O)c(Br)c2)CCC/C1=C\c1ccc(O)c(Br)c1` [Histone acetyltransferase inhibitor II] was “had an anti-influenza virus effect”. Regarding `COc1cc2c(c(OC)c1OC)-c1ccc(OC)c(=O)cc1[C@@H](NC(C)=O)CC2` [Colchicine], in the data set with influenza virus, the “virus titer reduced by a common logarithmic value” came out at 2 common logarithmic value. Moreover, the cytotoxicity entry in the data set on A549 cells [7] is “without showing severe cytotoxicity”. Regarding `O=C(Nc1nc2cccc(-c3ccc(CN4CCS(=O)(=O)CC4)cc3)n2n1)C1CC1` [Compound J19, N-[5-[4-[(1,1-dioxido-4-thiomorpholinyl)methyl]phenyl][1,2,4]triazolo[1,5-a]pyridin-2-yl]cyclopropanccarboxamidc], the CC50 at 48 h in data set [6], in data set [5] and in data set [1] (HEK293 cells) was more than 316 µM throughout. For `CC(=O)C(C)=NO` [2,3-Butanedione 2-Monoxime], the anti-influenza virus effect result in the data set on influenza virus is “had an anti-influenza virus effect”. In addition, the cell viability result in data set [4] (30 mM) is listed as “significantly reduced”.

The values are drawn from patent publication US20170290821A1 (priority 2014, published 2017).
